Laboratory results as given in patent publication US9889125B2 (TAKEDA PHARMACEUTICALS U.S.A., INC., priority 2011, dated 2018).
Counter-ions that a name gives are not always drawn.

Key:
[1] = tested on: P2Y12 platelet reactivity; assay: Platelet function test: VerifyNow, P2Y12 platelet reactivity unit (PRU); assay type: in vivo, human; conditions: 9 days, 24 Hours Post Day 9 Dose
Excerpt: (§1) ANOVA models with sequence, subject within sequence, period and regimen were fitted to the pharmacodynamic parameters.

[2] = tested on: platelet aggregation with ADP; assay: Platelet function test: Aggregometry with adenosine diphosphate (ADP), maximum platelet aggregation (MPA); assay type: in vivo, human; conditions: for MPA with 5 μM ADP, Mean (SD) / MPA with 20 μM ADP, Mean (SD): 9 days, 24 Hours Post Day 9 Dose
Excerpt: as §1

[3] = target: T1, CYP2C19 (Homo sapiens, UniProt P33261); assay: CYP2C19 inhibition by PPIs
T1 construct: The subject was a CYP2C19 extensive metabolizer (wt/wt); from tissue; host or cells: Liver of healthy study subjects (in vivo), CYP2C19 wt/wt genotype
T1 sequence (P33261 whole entry): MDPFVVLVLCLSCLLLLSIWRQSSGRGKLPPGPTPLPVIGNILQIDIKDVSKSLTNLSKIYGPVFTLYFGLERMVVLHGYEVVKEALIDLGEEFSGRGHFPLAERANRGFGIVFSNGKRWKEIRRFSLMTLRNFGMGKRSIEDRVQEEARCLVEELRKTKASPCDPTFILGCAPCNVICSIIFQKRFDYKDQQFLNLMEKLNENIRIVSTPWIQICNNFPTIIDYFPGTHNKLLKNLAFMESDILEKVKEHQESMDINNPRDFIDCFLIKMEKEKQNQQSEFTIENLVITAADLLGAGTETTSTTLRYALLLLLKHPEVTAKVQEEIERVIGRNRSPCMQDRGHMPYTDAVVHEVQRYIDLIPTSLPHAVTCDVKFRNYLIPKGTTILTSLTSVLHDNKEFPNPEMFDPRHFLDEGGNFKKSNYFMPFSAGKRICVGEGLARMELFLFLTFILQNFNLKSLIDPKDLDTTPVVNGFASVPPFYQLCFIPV

[4] = tested on: platelet function (Vasodilator-stimulated phosphoprotein, VASP); assay: Platelet function test: Vasodilator-stimulated phosphoprotein (VASP), platelet reactivity index (PRI); assay type: in vivo, human; conditions: for Difference in the LS-Means of PRI (with PPI vs without PPI): 9 days, 24 hours post Day 9 dose
Excerpt: as §1

[5] = PPI 80 mg with clopidogrel 300-mg loading dose and 75 mg/day maintenance dose; healthy subjects; cited from earlier work
[6] = PPI group lansoprazole 30 mg: clopidogrel 75 mg QD alone or clopidogrel + PPI
[7] = clopidogrel with lansoprazole 30 mg vs clopidogrel alone
[8] = PPI group dexlansoprazole 60 mg: clopidogrel 75 mg QD alone or clopidogrel + PPI
[9] = clopidogrel with dexlansoprazole 60 mg vs clopidogrel alone
[10] = PPI group esomeprazole 40 mg: clopidogrel 75 mg QD alone or clopidogrel + PPI
[11] = PPI group omeprazole 80 mg: clopidogrel 75 mg QD alone or clopidogrel + PPI

SMILES | PRU, Mean (SD) [1, 6] | MPA with 5 μM ADP, Mean (SD) [2, 6] | MPA with 20 μM ADP, Mean (SD) [2, 6] | CYP2C19 inhibition (strength of inhibitor) [3] | PRU, Mean (SD) [1, 8] | MPA with 5 μM ADP, Mean (SD) [2, 8] | MPA with 20 μM ADP, Mean (SD) [2, 8] | PRU, Mean (SD) [1, 10] | MPA with 5 μM ADP, Mean (SD) [2, 10] | MPA with 20 μM ADP, Mean (SD) [2, 10] | PRU, Mean (SD) [1, 11] | MPA with 5 μM ADP, Mean (SD) [2, 11] | MPA with 20 μM ADP, Mean (SD) [2, 11] | further results
Cc1c(OCC(F)(F)F)ccnc1C[S+]([O-])c1nc2ccccc2[nH]1 (stereo not drawn) [Lansoprazole] | 131.8 (71.27) % | 30.8 (9.35) % | 41.6 (12.65) % | weak CYP2C19 inhibitors |  |  |  |  |  |  |  |  |  | Difference in the LS-Means of PRI (with PPI vs without PPI) ([4]; clopidogrel 75 mg QD with vs without lansoprazole 30 mg QD): 4.1016; effect on clopidogrel PD in terms of PRI (90% CI of LS-Mean difference against 15% boundary) [4, 7]: equivalence in PD was demonstrated; increase in mean PRI [4, 7]: 4.1%
Cc1c(OCC(F)(F)F)ccnc1C[S@@+]([O-])c1nc2ccccc2[nH]1 [Dexlansoprazole] |  |  |  | weak CYP2C19 inhibitors | 146.7 (84.45) % | 36.2 (16.87) % | 46.3 (16.93) % |  |  |  |  |  |  | difference in MPA compared with clopidogrel alone, statistical significance ([2]; clopidogrel with dexlansoprazole 60 mg, either MPA (5 and 20 μM ADP)): not statistically significant; Difference in the LS-Means of PRI (with PPI vs without PPI) ([4]; clopidogrel 75 mg QD with vs without dexlansoprazole 60 mg QD): 2.0474; effect on clopidogrel PD in terms of PRI (90% CI of LS-Mean difference against 15% boundary) [4, 9]: equivalence in PD was demonstrated; increase in mean PRI [4, 9]: 2.0%
COc1ccc2nc([S@@+]([O-])Cc3ncc(C)c(OC)c3C)[nH]c2c1 [Esomeprazole] |  |  |  | potent CYP2C19 inhibitors |  |  |  | 177.6 (55.37) % | 38.2 (17.77) % | 47.9 (15.77) % |  |  |  | Difference in the LS-Means of PRI (with PPI vs without PPI) ([4]; clopidogrel 75 mg QD with vs without esomeprazole 40 mg QD): 11.4437; effect on clopidogrel PD in terms of PRI (90% CI of LS-Mean difference against 15% boundary) ([4]; clopidogrel with esomeprazole 40 mg vs clopidogrel alone): very similar to omeprazole 80 mg
COc1ccc2[nH]c([S+]([O-])Cc3ncc(C)c(OC)c3C)nc2c1 (stereo not drawn) [Omeprazole] |  |  |  | potent CYP2C19 inhibitors |  |  |  |  |  |  | 201.5 (59.65) % | 42.5 (14.74) % | 53.5 (13.75) % | metabolic DDI with clopidogrel [5]: a metabolic DDI was found to exist; Difference in the LS-Means of PRI (with PPI vs without PPI) ([4]; clopidogrel 75 mg QD with vs without omeprazole 80 mg QD): 11.0407
COC(=O)[C@H](c1ccccc1Cl)N1CCc2sccc2C1 [Clopidogrel, methyl (+)-(S)-α-(2-chlorophenyl)-6,7-dihydrothieno[3,2-c]pyridine-5 (4H)-acetate sulfate (1:1)] | 114.9 (56.44) % | 28.1 (6.76) % | 36.7 (9.11) % |  | 124.2 (79.10) % | 34.6 (14.23) % | 43.1 (13.24) % | 121.1 (50.64) % | 29.3 (10.41) % | 39.3 (13.22) % | 133.0 (67.62) % | 34.2 (12.32) % | 43.5 (14.00) % | 
